ChEMBL document CHEMBL2010729, “Facile synthesis of triterpenoid saponins bearing β-Glu/Gal-(1→3)-β-GluA methyl ester and their cytotoxic activities” (Bioorg Med Chem Lett, 2012)
Active and inactive are the calls of the source. The calls are words filed in the database; no cut-off is given here.

Experiments:
HepG2 = assay: Cytotoxicity against human HepG2 cells after 48 hrs by MTT assay; type: functional, cell-based; conditions: HepG2, 48 h
MCF7 [1] = assay: Cytotoxicity against human MCF7 cells after 48 hrs by MTT assay; type: functional, cell-based; conditions: MCF7, 48 h
K562 = assay: Cytotoxicity against human K562 cells after 48 hrs by MTT assay; type: functional, cell-based; conditions: K562, 48 h
MCF7 [2] = assay: Induction of apoptosis in human MCF7 cells assessed as pre-necrotic cells at 3 uM after 24 hrs using propidium iodide/annexin V staining by flow cytometry (reference value: 0.05 %); type: functional
MCF7 [3] = assay: Induction of apoptosis in human MCF7 cells assessed as late apoptotic cells at 1 uM after 24 hrs using propidium iodide/annexin V staining by flow cytometry (reference value: 0.11 %); type: functional
MCF7 [4] = assay: Induction of apoptosis in human MCF7 cells assessed as membrane blebbing at 1 to 3 uM after 24 hrs by DAPI staining based confocal laser scanning microscopy; type: functional, cell-based
MCF7 [5] = assay: Induction of apoptosis in human MCF7 cells assessed as chromatin condensation at 1 to 3 uM after 24 hrs by DAPI staining based confocal laser scanning microscopy; type: functional, cell-based
MCF7 [6] = assay: Induction of apoptosis in human MCF7 cells assessed as late apoptotic cells at 3 uM after 24 hrs using propidium iodide/annexin V staining by flow cytometry (reference value: 0.11 %); type: functional
MCF7 [7] = assay: Induction of apoptosis in human MCF7 cells assessed as apoptotic cells at 3 uM after 24 hrs using propidium iodide/annexin V staining by flow cytometry (reference value: 3.07 %); type: functional
MCF7 [8] = assay: Induction of apoptosis in human MCF7 cells assessed as pre-necrotic cells at 1 uM after 24 hrs using propidium iodide/annexin V staining by flow cytometry (reference value: 0.05 %); type: functional
MCF7 [9] = assay: Induction of apoptosis in human MCF7 cells assessed as apoptotic body formation at 1 to 3 uM after 24 hrs by DAPI staining based confocal laser scanning microscopy; type: functional, cell-based
MCF7 [10] = assay: Induction of apoptosis in human MCF7 cells assessed as apoptotic cells at 1 uM after 24 hrs using propidium iodide/annexin V staining by flow cytometry (reference value: 3.07 %); type: functional
MCF7 [11] = assay: Induction of apoptosis in human MCF7 cells assessed as pre-necrotic cells at 2 uM after 24 hrs using propidium iodide/annexin V staining by flow cytometry (reference value: 0.05 %); type: functional
MCF7 [12] = assay: Induction of apoptosis in human MCF7 cells assessed as cell shrinkage at 1 to 3 uM after 24 hrs by DAPI staining based confocal laser scanning microscopy; type: functional
MCF7 [13] = assay: Induction of apoptosis in human MCF7 cells assessed as late apoptotic cells at 2 uM after 24 hrs using propidium iodide/annexin V staining by flow cytometry (reference value: 0.11 %); type: functional
MCF7 [14] = assay: Induction of apoptosis in human MCF7 cells assessed as apoptotic cells at 2 uM after 24 hrs using propidium iodide/annexin V staining by flow cytometry (reference value: 3.07 %); type: functional
MCF7 [15] = assay: Induction of apoptosis in human MCF7 cells assessed as increase in ROS production after 24 hrs by fluorescence analysis; type: functional, cell-based
MCF7 [16] = assay: Induction of apoptosis in human MCF7 cells assessed as loss of mitochondrial membrane potential by JC-1 staining based flow cytometry; type: functional, cell-based

SMILES	IC50 (HepG2) [µM]	IC50 (MCF7 [1]) [µM]	IC50 (K562) [µM]	other results
COC(=O)[C@H]1O[C@@H](O[C@H]2CC[C@]3(C)[C@H]4CC=C5[C@@H]6CC(C)(C)CC[C@]6(C(=O)O)CC[C@@]5(C)[C@]4(C)CC[C@H]3C2(C)C)[C@H](O)[C@@H](O[C@@H]2O[C@H](CO)[C@@H](O)[C@H](O)[C@H]2O)[C@@H]1O [SPINASAPONIN A METHYL ESTER]	8.36	4.52	15.7	–
COC(=O)[C@H]1O[C@@H](O[C@H]2CC[C@]3(C)[C@H]4CC=C5[C@@H]6CC(C)(C)CC[C@]6(C(=O)O)CC[C@@]5(C)[C@]4(C)CC[C@H]3C2(C)C)[C@H](O)[C@@H](O[C@@H]2O[C@H](CO)[C@H](O)[C@H](O)[C@H]2O)[C@@H]1O	2.24	1.87	2.36	Activity (MCF7 [2]): 18.81%; Activity (MCF7 [3]): 8.43%; Activity (MCF7 [4]): Active; Activity (MCF7 [5]): Active; Activity (MCF7 [6]): 29.61%; Activity (MCF7 [7]): 3.26%; Activity (MCF7 [8]): 2.2%; Activity (MCF7 [9]): Active; Activity (MCF7 [10]): 4.33%; Activity (MCF7 [11]): 2.84%; Activity (MCF7 [12]): Active; Activity (MCF7 [13]): 18.44%; Activity (MCF7 [14]): 2.42%; Activity (MCF7 [15]): Dose-dependent effect; Activity (MCF7 [16]): Dose-dependent effect
COC(=O)[C@H]1O[C@@H](O[C@H]2CC[C@]3(C)[C@H]4C(=O)C=C5[C@@H]6C[C@@](C)(C(=O)O)CC[C@]6(C)CC[C@@]5(C)[C@]4(C)CC[C@H]3C2(C)C)[C@H](O)[C@@H](O[C@@H]2O[C@H](CO)[C@H](O)[C@H](O)[C@H]2O)[C@@H]1O	> 60	> 60	> 60	–
COC(=O)[C@H]1O[C@@H](O[C@H]2CC[C@]3(C)[C@H]4C(=O)C=C5[C@@H]6C[C@@](C)(C(=O)O)CC[C@]6(C)CC[C@@]5(C)[C@]4(C)CC[C@H]3C2(C)C)[C@H](O)[C@@H](O[C@@H]2O[C@H](CO)[C@@H](O)[C@H](O)[C@H]2O)[C@@H]1O	> 60	> 60	> 60	–
COC(=O)[C@H]1O[C@@H](O[C@H]2CC[C@]3(C)[C@H]4CC=C5[C@@H]6[C@@H](C)[C@H](C)CC[C@]6(C(=O)O)CC[C@@]5(C)[C@]4(C)CC[C@H]3C2(C)C)[C@H](O)[C@@H](O[C@@H]2O[C@H](CO)[C@H](O)[C@H](O)[C@H]2O)[C@@H]1O	47.1	22.1	> 60	–
COC(=O)[C@H]1O[C@@H](O[C@H]2CC[C@]3(C)[C@H]4CC=C5[C@@H]6[C@@H](C)[C@H](C)CC[C@]6(C(=O)O)CC[C@@]5(C)[C@]4(C)CC[C@H]3C2(C)C)[C@H](O)[C@@H](O[C@@H]2O[C@H](CO)[C@@H](O)[C@H](O)[C@H]2O)[C@@H]1O	44.7	23.3	> 60	–
